According to patent US11576380B2 (priority 2017, dated 2023):
Like-named read-outs stand apart in the source and are kept apart here.

Tests used:
Pyricularia oryzae = assay: microbe, parasite or virus in culture; format: cell-based; details: for azoxystrobin (B) inhibition (%): Table 2; for azoxystrobin (B) inhibition (%) / benzovindiflupyr (B) inhibition (%): 72 hours; for benzovindiflupyr (B) inhibition (%): Table 1
Mycosphaerella arachidis = assay: Liquid culture test in well plates, Mycosphaerella arachidis syn. Cercospora arachidicola (peanut brown leaf spot), Example 6; format: cell-based; details: Table 4, approximately 5-6 days
Experimental: The compositions according to the invention are tested for their biological (fungicidal) activity as dimethylsulfoxide (DMSO) solutions using one or more of the following protocols (Examples 2 to 8). A standard description of the liquid culture tests is provided in Example 1.
Mycelia fragments or conidia suspensions of a fungus, prepared either freshly from liquid cultures of the fungus or from cryogenic storage, are directly mixed into nutrient broth. DMSO solutions of the test compound (max. 10 mg/mL) is diluted with 0.025% Tween20 by factor 50 and 10 μL of this solution is pipetted into a microtiter plate (96-well format). The nutrient broth containing the fungal spores/mycelia fragments is then added to give an end concentration of the tested compound. The test plates are incubated in the dark at 24° C. and 96% relative humidity (rh). The inhibition of fungal growth is determined photometrically and visually after 3-7 days, depending on the pathosystem, and percent antifungal activity relative to the untreated check is calculated.
Conidia of the fungus from cryogenic storage were directly mixed into nutrient broth (PDB potato dextrose broth). After placing a DMSO solution of the test compositions into a microtiter plate (96-well format), the nutrient broth containing the fungal spores was added. The test plates were incubated at 24° C. and the inhibition of growth was determined photometrically after approximately 5-6 days.

Question: Which results are given for `COc1ccnc(C(=O)N[C@@H](C)C(=O)O[C@@H](C)C(c2ccc(F)cc2)c2ccc(F)cc2)c1OC(C)=O` [florylpicoxamid, (1S)-2,2-bis(4-fluorophenyl)-1-methylethyl N-{[3-(acetyloxy)-4-methoxy-2-pyridyl]carbonyl}-L-alaninate]?
Answer: inhibition at 0.0031 ppm (Pyricularia oryzae; Pyricularia oryzae, 72 h, read-out: florylpicoxamid (A) inhibition (%), Table 1, florylpicoxamid alone 0.0031 ppm): 0%; inhibition at 0.0063 ppm (Pyricularia oryzae; Pyricularia oryzae, 72 h, read-out: florylpicoxamid (A) inhibition (%), Table 1, florylpicoxamid alone 0.0063 ppm): 0%; inhibition at 0.0125 ppm (Pyricularia oryzae; Pyricularia oryzae, 72 h, read-out: florylpicoxamid (A) inhibition (%), Table 1, florylpicoxamid alone 0.0125 ppm): 0%; inhibition at 0.025 ppm (Pyricularia oryzae; Pyricularia oryzae, 72 h, read-out: florylpicoxamid (A) inhibition (%), Table 1, florylpicoxamid alone 0.0250 ppm): 0%; inhibition at 0.05 ppm (Pyricularia oryzae; Pyricularia oryzae, 72 h, read-out: florylpicoxamid (A) inhibition (%), Table 1, florylpicoxamid alone 0.0500 ppm): 0%; inhibition at 0.1 ppm (Pyricularia oryzae; Pyricularia oryzae, 72 h, read-out: florylpicoxamid (A) inhibition (%), Table 1, florylpicoxamid alone 0.1000 ppm): 20%; inhibition at 0.1 ppm (Pyricularia oryzae; Pyricularia oryzae, 72 h, read-out: florylpicoxamid (A) inhibition (%), Table 2, florylpicoxamid alone 0.1000 ppm): 20%; inhibition at 0.2 ppm (Pyricularia oryzae; Pyricularia oryzae, 72 h, read-out: florylpicoxamid (A) inhibition (%), Table 2, florylpicoxamid alone 0.2000 ppm): 50%; inhibition at 0.025 ppm (Pyricularia oryzae; Pyricularia oryzae, 72 h, read-out: florylpicoxamid (A) inhibition (%), Table 3, florylpicoxamid alone 0.0250 ppm): 0%; inhibition at 0.05 ppm (Pyricularia oryzae; Pyricularia oryzae, 72 h, read-out: florylpicoxamid (A) inhibition (%), Table 3, florylpicoxamid alone 0.0500 ppm): 20%; inhibition at 0.1 ppm (Pyricularia oryzae; Pyricularia oryzae, 72 h, read-out: florylpicoxamid (A) inhibition (%), Table 3, florylpicoxamid alone 0.1000 ppm): 30%; inhibition at 0.2 ppm (Pyricularia oryzae; Pyricularia oryzae, 72 h, read-out: florylpicoxamid (A) inhibition (%), Table 3, florylpicoxamid alone 0.2000 ppm): 60%; inhibition at 0.025 ppm (Mycosphaerella arachidis; Mycosphaerella arachidis, florylpicoxamid alone 0.0250 ppm): 4%; inhibition at 0.05 ppm (Mycosphaerella arachidis; Mycosphaerella arachidis, florylpicoxamid alone 0.0500 ppm): 15%; inhibition at 0.1 ppm (Mycosphaerella arachidis; Mycosphaerella arachidis, florylpicoxamid alone 0.1000 ppm): 38%

Question: For `N#Cc1c(Cl)c(Cl)c(Cl)c(C#N)c1Cl` [chlorothalonil], which inhibition at 0.25 ppm (Pyricularia oryzae; Pyricularia oryzae, 72 h, read-out: chlorothalonil (B) inhibition (%), Table 3, chlorothalonil alone 0.2500 ppm) is on record?
Answer: 0%

Question: And the inhibition at 0.5 ppm (Pyricularia oryzae; Pyricularia oryzae, 72 h, read-out: chlorothalonil (B) inhibition (%), Table 3, chlorothalonil alone 0.5000 ppm)?
Answer: 0%

Question: And the inhibition at 1 ppm (Pyricularia oryzae; Pyricularia oryzae, 72 h, read-out: chlorothalonil (B) inhibition (%), Table 3, chlorothalonil alone 1.0000 ppm)?
Answer: 20%

Question: `CON(C(=O)c1cn(C)nc1C(F)F)C(C)Cc1c(Cl)cc(Cl)cc1Cl` (stereo not drawn) [pydiflumetofen] was tested. Which “pydiflumetofen (B) inhibition (%)” value (Mycosphaerella arachidis; pydiflumetofen alone 0.0025 ppm) did it give?
Answer: 1%

Question: What about the “pydiflumetofen (B) inhibition (%)” value (Mycosphaerella arachidis; pydiflumetofen alone 0.0050 ppm) of the same compound?
Answer: 0%

Question: And the “pydiflumetofen (B) inhibition (%)” value (Mycosphaerella arachidis; pydiflumetofen alone 0.0100 ppm)?
Answer: 28%

Question: And the “pydiflumetofen (B) inhibition (%)” value (Mycosphaerella arachidis; pydiflumetofen alone 0.0200 ppm)?
Answer: 70%

Question: For `CO/C=C(/C(=O)OC)c1ccccc1Oc1cc(Oc2ccccc2C#N)ncn1` [azoxystrobin], which “azoxystrobin (B) inhibition (%)” value (Pyricularia oryzae; azoxystrobin alone 0.0250 ppm) is on record?
Answer: 0%

Question: And the “azoxystrobin (B) inhibition (%)” value (Pyricularia oryzae; azoxystrobin alone 0.0500 ppm)?
Answer: 0%

Question: What about the “azoxystrobin (B) inhibition (%)” value (Pyricularia oryzae; azoxystrobin alone 0.1000 ppm) of the same compound?
Answer: 0%

Question: And the “azoxystrobin (B) inhibition (%)” value (Pyricularia oryzae; azoxystrobin alone 0.2000 ppm)?
Answer: 0%

Question: Which results are given for `Cn1cc(C(=O)Nc2cccc3c2[C@@H]2CC[C@H]3C2=C(Cl)Cl)c(C(F)F)n1` (racemic) [benzovindiflupyr]?
Answer: benzovindiflupyr (B) inhibition (%) (Pyricularia oryzae; benzovindiflupyr alone 0.0125 ppm): 20%; benzovindiflupyr (B) inhibition (%) (Pyricularia oryzae; benzovindiflupyr alone 0.0250 ppm): 50%; benzovindiflupyr (B) inhibition (%) (Pyricularia oryzae; benzovindiflupyr alone 0.0500 ppm): 70%; benzovindiflupyr (B) inhibition (%) (Pyricularia oryzae; benzovindiflupyr alone 0.1000 ppm): 90%
